Structures can show the parent of a compound that is named as a salt. Where two headings read alike, the source gives them in different places.
Tests used:
[1] = system: pseudotyped lentiviruses harboring S-protein of SARS-CoV-2; assay: microbe, parasite or virus in culture; format: cell-based
[2] = system: pseudotyped viruses, triple mutant (N501Y/K417N/E484K) S protein; format: cell-based, SARS-CoV-2
[3] = system: pseudotyped viruses carrying K417N mutation in S protein; format: cell-based, SARS-CoV-2
[4] = system: pseudotyped viruses carrying E484K mutation in S protein; format: cell-based, SARS-CoV-2
[5] = system: pseudotyped viruses carrying N501Y mutation in S protein; format: cell-based, SARS-CoV-2
[6] = Severe acute respiratory syndrome coronavirus 2, 24 h

Row | SMILES | luciferase reporter activity (viral infection) [1] | effectiveness against SARS-CoV-2 spike pseudotyped viruses compared with VSV-G pseudotyped viruses (luciferase activity) ([1]; 24 h) | IC50 [1, 6] [µM] | other results
1 | CN(C)CCCN1c2ccccc2Sc2ccc(Cl)cc21 [Chlorpromazine] | Decline of luciferase reporter activity | more effective | 0.973 | IC50 [1]: 0.972 µM
2 | CN(C)C(=O)COC(=O)Cc1ccc(OC(=O)c2ccc(NC(=N)N)cc2)cc1 [Camostat mesylate] | significantly reduced | – | – | –
3 | CNCCCN1c2ccccc2CCc2ccccc21 [Desipramine] | significantly reduced luciferase reporter activity | more effective | 8.1 | –
4 | O=c1[nH]c2ccccc2n1C1CCN(CCCC(c2ccc(F)cc2)c2ccc(F)cc2)CC1 [Pimozide] | Decline of luciferase reporter activity | more effective | 4.54 | –
5 | CN(C)CCCN1c2ccccc2CCc2ccccc21 [Imipramine] | significantly reduced luciferase reporter activity | – | 3.01 | IC50 [1]: 3 µM; selectivity index (SI) [1]: 22.83
6 | N[C@]1(c2ccccc2Cl)CCC[C@H](O)C1=O [2S,6S-HNK, 2S, 6S-Hydroxynorketamine] | neither ketamine nor the metabolites were effective | – | – | –
7 | CN(C)CCCN1c2ccccc2CCc2ccc(Cl)cc21 [Clomipramine] | significantly reduced luciferase reporter activity | – | – | effectiveness against SARS-CoV-2 spike pseudotyped viruses compared with VSV-G pseudotyped viruses (luciferase activity) [1]: more effective
8 | NNCCc1ccccc1 [Phenelzine] | failed to prevent the viral entry | – | – | –
9 | CNCCC(Oc1ccc(C(F)(F)F)cc1)c1ccccc1 (centres unmarked) [Fluoxetine] | significantly reduced luciferase reporter activity | – | – | luciferase reporter activity, triple mutant (N501Y/K417N/E484K) pseudovirus [2]: significantly reduced the luciferase reporter activity; effectiveness against SARS-CoV-2 spike pseudotyped viruses compared with VSV-G pseudotyped viruses (luciferase activity) [1]: more effective; luciferase reporter activity, WT spike pseudovirus [1]: significantly reduced the luciferase reporter activity; luciferase reporter activity, K417N pseudovirus [3]: significantly reduced the luciferase reporter activity; luciferase reporter activity, E484K pseudovirus [4]: significantly reduced the luciferase reporter activity; luciferase reporter activity, N501Y pseudovirus [5]: significantly reduced the luciferase reporter activity
10 | OCCN1CCN(CCC=C2c3ccccc3Sc3ccc(C(F)(F)F)cc32)CC1 [Flupenthixol] | Decline of luciferase reporter activity | more effective | 1.07 | selectivity index (SI) [1]: 18.11
11 | CCOc1ccccc1OC(c1ccccc1)C1CNCCO1 (centres unmarked) [Reboxetine] | significantly reduced luciferase reporter activity | more effective | 17.7 | –
12 | N[C@@]1(c2ccccc2Cl)CCC[C@@H](O)C1=O [2R,6R-HNK, 2R, 6R-Hydroxynorketamine] | neither ketamine nor the metabolites were effective | – | – | –
13 | COc1ccc(C(CN(C)C)C2(O)CCCCC2)cc1 (centres unmarked) [Venlafaxine] | significantly reduced luciferase reporter activity | – | 36.4 | –
14 | CNC1(c2ccccc2Cl)CCCCC1=O (centres unmarked) [Ketamine] | neither ketamine nor the metabolites were effective | – | – | –
15 | COc1ccc(C2CNC(=O)C2)cc1OC1CCCC1 (centres unmarked) [Rolipram] | failed to prevent the viral entry | – | – | –
16 | Fc1ccc([C@@H]2CCNC[C@H]2COc2ccc3c(c2)OCO3)cc1 [Paroxetine] | significantly reduced luciferase reporter activity | more effective | 12.6 | selectivity index (SI) [1]: 1.76
17 | NC(=O)N1c2ccccc2C=Cc2ccccc21 [Carbamazepine] | failed to change the viral infection | – | – | –
18 | CN(C)CCCC1(c2ccc(F)cc2)OCc2cc(C#N)ccc21 (centres unmarked) [Citalopram] | significantly reduced luciferase reporter activity | more effective | 27.5 | selectivity index (SI) [1]: 9.97

Reference: PMC8809408 (Frontiers in Pharmacology, 2022)
